For 17 molecules, IC50 results are on record in PubChem BioAssay AID624167 (Sanford-Burnham Center for Chemical Genomics, 2012).

Assay in all cases: Peg3 promoter luciferase inhibitors, potency, dose response, cell-based, HeLa, CREF/GAPDH counter-screen panel (AID 624167)
Assay [1] relates to Rat fibroblasts (CREF). Conditions: CREF/GAPDH counter-screens.
Assay [2] deals with PEG-3 (UniProt Q6IN02). Conditions: HeLa PEG-Prom luciferase reporter, overnight, CREF/GAPDH counter-screens, mean of runs.
Chain of PEG-3 (UniProt Q6IN02) (Q6IN02 whole entry, looked up): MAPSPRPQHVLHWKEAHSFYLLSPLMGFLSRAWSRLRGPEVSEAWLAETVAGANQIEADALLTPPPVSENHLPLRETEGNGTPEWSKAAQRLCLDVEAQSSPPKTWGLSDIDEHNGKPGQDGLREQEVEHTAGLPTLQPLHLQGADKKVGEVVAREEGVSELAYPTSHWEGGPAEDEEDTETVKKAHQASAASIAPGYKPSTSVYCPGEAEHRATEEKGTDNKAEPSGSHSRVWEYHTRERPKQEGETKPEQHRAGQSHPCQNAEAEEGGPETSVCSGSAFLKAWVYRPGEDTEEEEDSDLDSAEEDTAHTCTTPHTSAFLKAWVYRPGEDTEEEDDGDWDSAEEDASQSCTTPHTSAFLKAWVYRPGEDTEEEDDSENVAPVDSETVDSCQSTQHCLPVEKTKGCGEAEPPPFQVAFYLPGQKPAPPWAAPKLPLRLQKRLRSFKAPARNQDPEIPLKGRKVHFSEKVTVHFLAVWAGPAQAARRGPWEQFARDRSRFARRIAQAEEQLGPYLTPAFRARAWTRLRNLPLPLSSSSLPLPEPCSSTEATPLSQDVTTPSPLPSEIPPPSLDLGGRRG
Assay [3] relates to PEG-3. Conditions: HeLa PEG-Prom luciferase reporter, overnight, CREF/GAPDH counter-screens.
Where [4] appears, read: run 1, dose range 1, individual replicate IC50 per panel.
Setting [5] is: run 2, dose range 1, individual replicate IC50 per panel.

Structures are written as SMILES.

As for `O=C(OCC(F)(F)F)c1cccc(COc2ccc3ccccc3c2)c1`, the IC50 in assay [1] (mean of runs) is 16.1 µM; in assay [1] (setting [4]), 14.9 µM; in assay [1] (setting [5]) it was 17.3 µM; in assay [2], 1.27 µM; in assay [3] (setting [4]) it was 1.14 µM; in assay [3] (setting [5]) it was 1.4 µM.

With `O=c1c2ccccc2cnn1-c1nc2ccccc2[nH]1`, the IC50 in assay [1] (mean of runs) was 0.546 µM; in assay [1] (setting [4]), 0.475 µM; in assay [1] (setting [5]) it was 0.617 µM; in assay [2], 0.723 µM; in assay [3] (setting [4]), 0.686 µM; in assay [3] (setting [5]) it was 0.76 µM.

As to `O=C(Nc1cccc(C(=O)O)c1)Nc1ccc2c(c1)OCO2`, the IC50 in assay [1] (mean of runs) was 17.4 µM; in assay [1] (setting [4]) it was 14.2 µM; in assay [1] (setting [5]) it was 20.7 µM; in assay [2] it was 8.34 µM; in assay [3] (setting [4]), 3.5 µM; in assay [3] (setting [5]), 13.2 µM.

On to `Brc1ccc(N=Nc2ccc3ccccc3n2)cc1`, for which the IC50 was 0.456 µM in assay [1] (mean of runs); 0.213 µM in assay [1] (setting [4]); 0.698 µM in assay [1] (setting [5]); 6.1 µM in assay [2]; 5.75 µM in assay [3] (setting [4]); 6.45 µM in assay [3] (setting [5]).

`O=C1C(Cl)=C(Nc2ccccc2)C(=O)c2ccccc21`: the IC50 in assay [1] (mean of runs) is 7.13 µM; in assay [1] (setting [4]) it was 4.48 µM; in assay [1] (setting [5]), 9.78 µM; in assay [2] it was 7.18 µM; in assay [3] (setting [4]) it was 12.5 µM; in assay [3] (setting [5]), 1.9 µM.

Consider `Cc1csc(NC(=O)c2ccc(N3CCCC3=O)cc2)n1`, for which the IC50 in assay [1] (mean of runs) is 4.51 µM; in assay [1] (setting [4]) it was 2.85 µM; in assay [1] (setting [5]), 6.17 µM; in assay [2], 5.93 µM; in assay [3] (setting [4]), 5.34 µM; in assay [3] (setting [5]), 6.53 µM.

With `O=C(O)c1cccc(COc2ccc3c(c2)CCC3)c1`, the IC50 in assay [1] (mean of runs) is 10.3 µM; in assay [1] (setting [4]), 10.7 µM; in assay [1] (setting [5]) it was 9.92 µM; in assay [2] it was 1.35 µM; in assay [3] (setting [4]), 0.823 µM; in assay [3] (setting [5]), 1.89 µM.

Take `CCOC(=O)Cc1csc(NC(=S)NC(=O)c2ccc(Cl)cc2)n1`: the IC50 is 4.97 µM in assay [1] (mean of runs); 4.16 µM in assay [1] (setting [4]); 5.77 µM in assay [1] (setting [5]); 5.62 µM in assay [2]; 7.55 µM in assay [3] (setting [4]); 3.68 µM in assay [3] (setting [5]).

`C(=Cc1cnc2ccccc2n1)c1ccc2c(c1)OCO2`: the IC50 in assay [1] (mean of runs) was 1.12 µM; in assay [1] (setting [4]) it was 1.02 µM; in assay [1] (setting [5]), 1.21 µM; in assay [2], 1.49 µM; in assay [3] (setting [4]) it was 1.7 µM; in assay [3] (setting [5]), 1.27 µM.

In the case of `CC(=O)Nc1ccc(NC(=O)c2nc(S(=O)(=O)Cc3cccc(C)c3)ncc2Cl)cc1`, the IC50 is 6.67 µM in assay [1] (mean of runs); 4.5 µM in assay [1] (setting [4]); 8.85 µM in assay [1] (setting [5]); 7.65 µM in assay [2]; 9.47 µM in assay [3] (setting [4]); 5.84 µM in assay [3] (setting [5]).

As to `Cc1ccc(C(=O)CN2C(=O)c3ccccc3S2(=O)=O)cc1`, the IC50 is 8.72 µM in assay [1] (mean of runs); 8.77 µM in assay [1] (setting [4]); 8.68 µM in assay [1] (setting [5]); 6.27 µM in assay [2]; 6.12 µM in assay [3] (setting [4]); 6.43 µM in assay [3] (setting [5]).

On to `Cc1nc(-c2ccc(NC(=O)c3ccco3)cc2)cs1`, for which the 50% inhibitory concentration (IC50) in assay [1] (mean of runs) was 0.433 µM; in assay [1] (setting [4]), 0.43 µM; in assay [1] (setting [5]) it was 0.436 µM; in assay [2], 1.54 µM; in assay [3] (setting [4]) it was 1.39 µM; in assay [3] (setting [5]), 1.69 µM.

As for `COCCn1c(C)cc(C(=O)COC(=O)c2cccc(O)c2)c1C`, the IC50 in assay [1] (mean of runs) is 0.611 µM; in assay [1] (setting [4]), 0.468 µM; in assay [1] (setting [5]) it was 0.755 µM; in assay [2] it was 10.8 µM; in assay [3] (setting [4]), 16.1 µM; in assay [3] (setting [5]) it was 5.48 µM.

Consider `O=C(NCCc1ccccc1)c1ccc2c(c1)OCO2`, for which the 50% inhibitory concentration (IC50) in assay [1] (mean of runs) was 6.29 µM; in assay [1] (setting [4]), 6.89 µM; in assay [1] (setting [5]), 5.68 µM; in assay [2] it was 4.93 µM; in assay [3] (setting [4]), 3.97 µM; in assay [3] (setting [5]) it was 5.89 µM.

Take `COc1cc(SC)ccc1C(=O)Nc1ncc(C)s1`: the IC50 in assay [1] (mean of runs) was 1.94 µM; in assay [1] (setting [4]), 1.58 µM; in assay [1] (setting [5]) it was 2.3 µM; in assay [2], 3.9 µM; in assay [3] (setting [4]) it was 3.02 µM; in assay [3] (setting [5]), 4.77 µM.

Consider `O=C(CN1C(=O)c2ccccc2S1(=O)=O)c1ccc2c(c1)OCCCO2`, for which the IC50 is 1.28 µM in assay [1] (mean of runs); 1.07 µM in assay [1] (setting [4]); 1.48 µM in assay [1] (setting [5]); 0.59 µM in assay [2]; 0.77 µM in assay [3] (setting [4]); 0.411 µM in assay [3] (setting [5]).

On to `COc1cccc(NC(=O)c2nc(S(C)(=O)=O)ncc2Cl)c1`, for which the IC50 is 9.29 µM in assay [1] (mean of runs); 10.2 µM in assay [1] (setting [4]); 8.36 µM in assay [1] (setting [5]); 7.74 µM in assay [2]; 8.84 µM in assay [3] (setting [4]); 6.64 µM in assay [3] (setting [5]).
